ChEMBL document CHEMBL4507270 (2021)

Columns and labels:
[1] = tested on: Epidermal growth factor receptor (Homo sapiens), P00533 [UNDEFINED MUTATION]
[2] = target: Mitogen-activated protein kinase 12 (Homo sapiens) (UniProt P53778)
[3] = target: Death-associated protein kinase 3 (Homo sapiens) (UniProt O43293)
[4] = target: Insulin receptor-related protein (Homo sapiens) (UniProt P14616)
[5] = target: 5-hydroxytryptamine receptor 1E (Homo sapiens) (UniProt P28566); conditions: Compound concentration 10.0 uM
[6] = target: Serine/threonine-protein kinase VRK2 (Homo sapiens) (UniProt Q86Y07)
[7] = tested on: Receptor-type tyrosine-protein kinase FLT3 (Homo sapiens), P36888 [UNDEFINED MUTATION]
[8] = target: Platelet-derived growth factor receptor beta (Homo sapiens, UniProt P09619)
[9] = target: Beta-2 adrenergic receptor (Homo sapiens) (UniProt P07550); conditions: Compound concentration 10.0 uM
[10] = target: Serine/threonine-protein kinase PLK4 (Homo sapiens) (UniProt O00444)
[11] = target: Focal adhesion kinase 1 (Homo sapiens) (UniProt Q05397)
[12] = target: Phosphatidylinositol 3-kinase catalytic subunit type 3 (Homo sapiens) (UniProt Q8NEB9)
[13] = target: Serine/threonine-protein kinase PknB (Mycobacterium tuberculosis) (UniProt P9WI81)
[14] = target: Calcium/calmodulin-dependent protein kinase kinase 1 (Homo sapiens) (UniProt Q8N5S9)
[15] = target: Serine/threonine-protein kinase mTOR (Homo sapiens) (UniProt P42345)
[16] = target: Mitogen-activated protein kinase 3 (Homo sapiens) (UniProt P27361)
[17] = target: Fibroblast growth factor receptor 1 (Homo sapiens, UniProt P11362)
[18] = target: Serine/threonine-protein kinase MARK2 (Homo sapiens) (UniProt Q7KZI7)
[19] = target: Ephrin type-A receptor 2 (Homo sapiens) (UniProt P29317)
[20] = target: Fibroblast growth factor receptor 4 (Homo sapiens) (UniProt P22455)
[21] = target: Serine/threonine-protein kinase MRCK gamma (Homo sapiens) (UniProt Q6DT37)
[22] = target: 5-hydroxytryptamine receptor 7 (Homo sapiens) (UniProt P34969); conditions: Compound concentration 10.0 uM
[23] = target: Tyrosine-protein kinase ZAP-70 (Homo sapiens) (UniProt P43403)
[24] = target: 1-phosphatidylinositol 3-phosphate 5-kinase (Homo sapiens) (UniProt Q9Y2I7)
[25] = target: Serine/threonine-protein kinase SIK3 (Homo sapiens) (UniProt Q9Y2K2)
[26] = target: Casein kinase II subunit alpha' (Homo sapiens) (UniProt P19784)
[27] = target: NUAK family SNF1-like kinase 1 (Homo sapiens) (UniProt O60285)
[28] = target: Mitogen-activated protein kinase 1 (Homo sapiens) (UniProt P28482)
[29] = target: Serine/threonine-protein kinase RIO3 (Homo sapiens) (UniProt O14730)
[30] = target: Activin receptor type-2B (Homo sapiens) (UniProt Q13705)
[31] = tested on: eIF-2-alpha kinase GCN2 (Homo sapiens), Q9P2K8 [S808G]
[32] = target: Mitogen-activated protein kinase kinase kinase 20 (Homo sapiens) (UniProt Q9NYL2)
[33] = target: Microtubule-associated serine/threonine-protein kinase 1 (Homo sapiens) (UniProt Q9Y2H9)
[34] = tested on: Epidermal growth factor receptor (Homo sapiens), P00533 [UNDEFINED MUTATION]; remark: listed apart in the source
[35] = target: ALK tyrosine kinase receptor (Homo sapiens) (UniProt Q9UM73)
[36] = target: Ribosomal protein S6 kinase alpha-1 (Homo sapiens) (UniProt Q15418)
[37] = target: Myosin light chain kinase, smooth muscle (Homo sapiens) (UniProt Q15746)
[38] = target: Tyrosine-protein kinase Fes/Fps (Homo sapiens) (UniProt P07332)
[39] = target: SNF-related serine/threonine-protein kinase (Homo sapiens) (UniProt Q9NRH2)
[40] = target: Macrophage colony-stimulating factor 1 receptor (Homo sapiens) (UniProt P07333)
[41] = tested on: Proto-oncogene tyrosine-protein kinase receptor Ret (Homo sapiens), P07949 [M918T]
[42] = tested on: Epidermal growth factor receptor (Homo sapiens), P00533 [L861Q]
[43] = target: Serine/threonine-protein kinase 32C (Homo sapiens) (UniProt Q86UX6)
[44] = target: Phosphatidylinositol 4,5-bisphosphate 3-kinase catalytic subunit alpha isoform (Homo sapiens) (UniProt P42336)
[45] = tested on: Epidermal growth factor receptor (Homo sapiens), P00533 [T790M]
[46] = Compound concentration 1000.0 nM
[47] = Compound concentration 100.0 nM

Chain of Myosin light chain kinase, smooth muscle (Homo sapiens) (Q15746 whole entry): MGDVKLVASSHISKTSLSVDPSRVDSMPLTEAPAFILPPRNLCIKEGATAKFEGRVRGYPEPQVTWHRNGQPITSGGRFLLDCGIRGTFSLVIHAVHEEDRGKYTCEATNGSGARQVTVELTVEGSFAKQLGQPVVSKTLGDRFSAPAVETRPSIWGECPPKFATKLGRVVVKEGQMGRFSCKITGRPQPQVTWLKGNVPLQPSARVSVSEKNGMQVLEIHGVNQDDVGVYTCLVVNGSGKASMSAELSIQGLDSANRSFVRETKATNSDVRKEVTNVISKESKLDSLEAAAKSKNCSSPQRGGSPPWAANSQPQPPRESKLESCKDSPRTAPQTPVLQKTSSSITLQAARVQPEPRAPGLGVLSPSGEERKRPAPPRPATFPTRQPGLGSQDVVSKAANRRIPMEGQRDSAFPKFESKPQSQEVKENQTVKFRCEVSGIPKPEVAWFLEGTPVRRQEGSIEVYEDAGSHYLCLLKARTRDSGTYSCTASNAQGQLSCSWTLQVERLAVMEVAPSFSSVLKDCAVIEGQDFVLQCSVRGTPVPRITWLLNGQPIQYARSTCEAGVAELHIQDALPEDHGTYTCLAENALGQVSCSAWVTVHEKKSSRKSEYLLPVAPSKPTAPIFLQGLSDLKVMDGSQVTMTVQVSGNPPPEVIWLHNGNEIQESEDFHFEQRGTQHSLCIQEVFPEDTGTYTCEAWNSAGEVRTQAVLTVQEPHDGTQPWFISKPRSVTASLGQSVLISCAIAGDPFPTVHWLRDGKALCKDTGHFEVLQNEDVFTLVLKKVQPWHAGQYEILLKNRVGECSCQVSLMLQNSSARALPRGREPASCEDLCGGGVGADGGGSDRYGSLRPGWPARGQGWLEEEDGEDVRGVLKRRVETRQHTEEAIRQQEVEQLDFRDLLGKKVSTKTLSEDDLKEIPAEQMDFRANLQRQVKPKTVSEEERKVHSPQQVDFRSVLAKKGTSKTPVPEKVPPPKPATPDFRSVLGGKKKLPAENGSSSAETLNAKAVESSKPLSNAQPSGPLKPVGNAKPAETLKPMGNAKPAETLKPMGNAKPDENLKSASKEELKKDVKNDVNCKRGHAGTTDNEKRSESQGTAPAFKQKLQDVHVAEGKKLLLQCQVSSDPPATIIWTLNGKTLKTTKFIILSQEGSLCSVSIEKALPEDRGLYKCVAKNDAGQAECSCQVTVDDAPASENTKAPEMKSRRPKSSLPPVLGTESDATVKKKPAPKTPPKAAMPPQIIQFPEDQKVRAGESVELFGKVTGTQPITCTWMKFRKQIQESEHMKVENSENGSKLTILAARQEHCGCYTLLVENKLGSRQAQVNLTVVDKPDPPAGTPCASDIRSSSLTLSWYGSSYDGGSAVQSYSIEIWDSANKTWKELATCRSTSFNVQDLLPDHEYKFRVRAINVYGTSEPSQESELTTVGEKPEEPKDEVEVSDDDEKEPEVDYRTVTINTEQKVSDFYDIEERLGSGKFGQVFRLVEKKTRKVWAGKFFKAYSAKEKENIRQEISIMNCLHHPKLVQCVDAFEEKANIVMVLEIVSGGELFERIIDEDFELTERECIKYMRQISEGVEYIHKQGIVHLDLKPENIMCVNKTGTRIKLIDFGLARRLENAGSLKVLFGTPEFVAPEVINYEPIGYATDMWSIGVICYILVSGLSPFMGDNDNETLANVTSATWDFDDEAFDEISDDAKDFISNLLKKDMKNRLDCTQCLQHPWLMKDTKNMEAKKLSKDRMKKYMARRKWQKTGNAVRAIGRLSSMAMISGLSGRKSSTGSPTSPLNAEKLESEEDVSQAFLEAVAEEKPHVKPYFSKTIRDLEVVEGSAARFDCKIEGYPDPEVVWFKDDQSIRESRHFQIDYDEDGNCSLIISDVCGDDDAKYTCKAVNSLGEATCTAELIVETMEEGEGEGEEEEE
Chain of Mitogen-activated protein kinase 12 (Homo sapiens) (P53778 whole entry): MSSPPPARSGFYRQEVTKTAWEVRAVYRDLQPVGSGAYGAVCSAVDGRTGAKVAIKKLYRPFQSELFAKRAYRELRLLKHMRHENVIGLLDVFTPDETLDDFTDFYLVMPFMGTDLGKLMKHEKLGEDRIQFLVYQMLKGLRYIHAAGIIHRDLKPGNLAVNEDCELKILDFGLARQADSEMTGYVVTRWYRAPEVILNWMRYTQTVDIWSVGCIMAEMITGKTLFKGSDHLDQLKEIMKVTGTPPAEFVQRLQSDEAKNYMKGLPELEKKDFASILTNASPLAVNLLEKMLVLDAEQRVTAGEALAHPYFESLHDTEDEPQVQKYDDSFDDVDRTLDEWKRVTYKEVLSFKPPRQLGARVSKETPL
Chain of 1-phosphatidylinositol 3-phosphate 5-kinase (Homo sapiens) (Q9Y2I7 whole entry): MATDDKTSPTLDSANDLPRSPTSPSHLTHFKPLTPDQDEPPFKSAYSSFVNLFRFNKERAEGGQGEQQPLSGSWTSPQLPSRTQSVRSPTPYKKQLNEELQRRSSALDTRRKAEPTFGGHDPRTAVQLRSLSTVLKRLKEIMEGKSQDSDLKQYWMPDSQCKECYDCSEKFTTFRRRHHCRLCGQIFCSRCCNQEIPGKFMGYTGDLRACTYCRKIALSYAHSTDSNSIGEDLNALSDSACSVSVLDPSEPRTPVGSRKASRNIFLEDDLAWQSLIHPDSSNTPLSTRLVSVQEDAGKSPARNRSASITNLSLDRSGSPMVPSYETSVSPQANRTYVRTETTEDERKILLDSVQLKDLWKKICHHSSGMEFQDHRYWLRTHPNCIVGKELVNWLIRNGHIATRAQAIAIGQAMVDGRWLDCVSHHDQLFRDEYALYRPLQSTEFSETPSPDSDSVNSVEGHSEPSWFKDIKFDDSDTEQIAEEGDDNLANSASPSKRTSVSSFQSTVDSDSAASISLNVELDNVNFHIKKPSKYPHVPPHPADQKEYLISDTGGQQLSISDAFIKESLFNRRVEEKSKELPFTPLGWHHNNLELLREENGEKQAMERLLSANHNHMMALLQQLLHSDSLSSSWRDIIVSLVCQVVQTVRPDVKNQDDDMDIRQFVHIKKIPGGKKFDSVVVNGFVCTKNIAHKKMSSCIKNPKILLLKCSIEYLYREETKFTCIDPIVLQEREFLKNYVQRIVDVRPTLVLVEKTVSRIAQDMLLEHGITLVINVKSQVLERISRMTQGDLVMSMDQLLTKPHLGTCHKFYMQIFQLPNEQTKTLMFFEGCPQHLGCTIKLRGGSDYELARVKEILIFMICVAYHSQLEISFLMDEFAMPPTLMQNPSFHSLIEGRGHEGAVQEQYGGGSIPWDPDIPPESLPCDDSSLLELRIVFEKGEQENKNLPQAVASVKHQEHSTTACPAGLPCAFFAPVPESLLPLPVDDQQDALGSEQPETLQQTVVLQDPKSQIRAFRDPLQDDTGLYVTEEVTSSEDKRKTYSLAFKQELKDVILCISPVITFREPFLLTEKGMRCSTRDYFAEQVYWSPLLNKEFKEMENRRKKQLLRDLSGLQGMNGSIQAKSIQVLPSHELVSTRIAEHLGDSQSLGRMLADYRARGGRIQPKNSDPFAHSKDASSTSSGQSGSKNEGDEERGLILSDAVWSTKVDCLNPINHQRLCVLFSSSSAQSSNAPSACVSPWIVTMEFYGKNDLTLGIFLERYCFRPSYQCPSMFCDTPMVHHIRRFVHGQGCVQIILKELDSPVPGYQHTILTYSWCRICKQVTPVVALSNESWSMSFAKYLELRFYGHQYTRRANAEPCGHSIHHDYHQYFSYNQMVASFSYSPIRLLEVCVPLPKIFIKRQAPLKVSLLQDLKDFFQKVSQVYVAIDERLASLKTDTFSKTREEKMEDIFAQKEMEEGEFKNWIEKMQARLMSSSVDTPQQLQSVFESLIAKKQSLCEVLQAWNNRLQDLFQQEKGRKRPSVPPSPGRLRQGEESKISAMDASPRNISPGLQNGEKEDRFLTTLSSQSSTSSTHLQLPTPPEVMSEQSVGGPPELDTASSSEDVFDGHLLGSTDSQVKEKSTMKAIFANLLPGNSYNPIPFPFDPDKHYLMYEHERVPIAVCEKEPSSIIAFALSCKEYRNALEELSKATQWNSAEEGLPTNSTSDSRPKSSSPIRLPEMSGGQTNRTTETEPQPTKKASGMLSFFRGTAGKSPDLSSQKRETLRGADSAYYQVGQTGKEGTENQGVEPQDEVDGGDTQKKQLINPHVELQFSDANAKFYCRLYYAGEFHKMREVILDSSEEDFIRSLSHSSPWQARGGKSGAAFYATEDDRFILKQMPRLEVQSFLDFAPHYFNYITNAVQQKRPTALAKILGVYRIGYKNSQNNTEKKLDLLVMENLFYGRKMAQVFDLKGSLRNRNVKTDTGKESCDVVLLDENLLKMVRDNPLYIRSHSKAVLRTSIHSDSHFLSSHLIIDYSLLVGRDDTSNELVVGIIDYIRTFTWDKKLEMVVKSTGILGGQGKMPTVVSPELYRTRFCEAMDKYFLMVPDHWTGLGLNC
Chain of Activin receptor type-2B (Homo sapiens) (Q13705 whole entry): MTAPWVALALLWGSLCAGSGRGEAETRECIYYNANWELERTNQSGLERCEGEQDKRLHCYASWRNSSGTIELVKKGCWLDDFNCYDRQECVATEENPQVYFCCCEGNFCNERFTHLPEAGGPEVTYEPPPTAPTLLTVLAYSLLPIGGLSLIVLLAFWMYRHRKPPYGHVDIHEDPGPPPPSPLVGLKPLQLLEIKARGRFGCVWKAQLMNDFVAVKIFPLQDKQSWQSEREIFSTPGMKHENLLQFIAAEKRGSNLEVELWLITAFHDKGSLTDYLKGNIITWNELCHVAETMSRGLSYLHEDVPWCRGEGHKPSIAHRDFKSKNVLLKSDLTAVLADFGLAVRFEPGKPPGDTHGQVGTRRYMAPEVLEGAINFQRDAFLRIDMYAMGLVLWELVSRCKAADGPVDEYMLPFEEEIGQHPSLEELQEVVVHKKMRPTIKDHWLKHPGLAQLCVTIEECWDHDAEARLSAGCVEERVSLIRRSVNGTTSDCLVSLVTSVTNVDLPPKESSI

Q: Which residual activity [1, 46] does the source give for `Cc1cc(NC(=O)c2cccc(S(F)(F)(F)(F)F)c2)cc(-n2ccn3nc(-c4cccnc4)cc23)c1` [BAY-309] here?
A: Its residual activity is 100%.

Q: What about the residual activity [2, 46] of the same compound?
A: The residual activity was 41.7%.

Q: What about the residual activity [3, 46] of the same compound?
A: Its residual activity is 100%.

Q: What about the residual activity [4, 46] of the same compound?
A: Its residual activity is 100%.

Q: What about the inhibition [5] of the same compound?
A: The inhibition was 19.9%.

Q: And the residual activity [6, 46]?
A: Its residual activity is 100%.

Q: And the residual activity [7, 46]?
A: The residual activity was 100%.

Q: And the residual activity [8, 46]?
A: The residual activity was 100%.

Q: And the inhibition [9]?
A: The inhibition was -7.8%.

Q: What about the residual activity [10, 46] of the same compound?
A: Its residual activity is 96.9%.

Q: What about the residual activity [11, 46] of the same compound?
A: Its residual activity is 96.4%.

Q: What about the residual activity [12, 46] of the same compound?
A: Its residual activity is 76.6%.

Q: And the residual activity [13, 46]?
A: The residual activity was 63.7%.

Q: And the residual activity [14, 46]?
A: Its residual activity is 100%.

Q: And the residual activity [15, 46]?
A: The residual activity was 99.2%.

Q: What about the residual activity [16, 46] of the same compound?
A: Its residual activity is 86.8%.

Q: What about the residual activity [17, 46] of the same compound?
A: Its residual activity is 100%.

Q: What about the residual activity [18, 46] of the same compound?
A: Its residual activity is 100%.

Q: What about the residual activity [19, 46] of the same compound?
A: The residual activity was 100%.

Q: What about the residual activity [20, 46] of the same compound?
A: Its residual activity is 100%.

Q: What about the residual activity [21, 46] of the same compound?
A: The residual activity was 100%.

Q: What about the inhibition [22] of the same compound?
A: The inhibition was 6.71%.

Q: What about the residual activity [23, 46] of the same compound?
A: Its residual activity is 100%.

Q: And the residual activity [24, 46]?
A: The residual activity was 100%.

Q: And the residual activity [25, 46]?
A: Its residual activity is 100%.

Q: What about the residual activity [26, 46] of the same compound?
A: Its residual activity is 100%.

Q: And the residual activity [27, 46]?
A: Its residual activity is 51.3%.

Q: And the residual activity [28, 46]?
A: Its residual activity is 61.7%.

Q: And the residual activity [29, 46]?
A: The residual activity was 85.9%.

Q: And the residual activity [30, 46]?
A: The residual activity was 100%.

Q: And the residual activity [31, 46]?
A: Its residual activity is 100%.

Q: What about the residual activity [32, 46] of the same compound?
A: Its residual activity is 84.4%.

Q: What about the residual activity [33, 46] of the same compound?
A: The residual activity was 100%.

Q: And the residual activity [34, 46]?
A: The residual activity was 98.7%.

Q: What about the residual activity [35, 46] of the same compound?
A: The residual activity was 68.1%.

Q: And the residual activity [36, 46]?
A: Its residual activity is 100%.

Q: And the residual activity [37, 46]?
A: Its residual activity is 91.8%.

Q: What about the residual activity [38, 46] of the same compound?
A: Its residual activity is 100%.

Q: What about the residual activity [39, 46] of the same compound?
A: The residual activity was 100%.

Q: What about the residual activity [40, 46] of the same compound?
A: Its residual activity is 89%.

Q: What about the residual activity [41, 46] of the same compound?
A: Its residual activity is 100%.

Q: And the residual activity [42, 46]?
A: Its residual activity is 98.2%.

Q: What about the residual activity [43, 46] of the same compound?
A: The residual activity was 75.8%.

Q: What about the residual activity [44, 46] of the same compound?
A: The residual activity was 100%.

Q: And the residual activity [45, 46]?
A: The residual activity was 100%.

Q: Which results are given for `Cc1cc(C)c(-n2ccn3nc(-c4cccnc4)cc23)cc1NC(=O)c1cc(C#N)cc(S(F)(F)(F)(F)F)c1` [BAY-826]?
A: residual activity [1, 47]: 91.6%; residual activity [2, 47]: 61.2%; residual activity [3, 47]: 78.1%; residual activity [4, 47]: 91.8%; inhibition [5]: 3.57%; residual activity [6, 47]: 79.8%; residual activity [7, 47]: 69.3%; residual activity [8, 47]: 74.8%; inhibition [9]: 25.6%; residual activity [10, 47]: 64.1%; residual activity [11, 47]: 100%; residual activity [12, 47]: 84.9%; residual activity [13, 47]: 62.5%; residual activity [14, 47]: 93.6%; residual activity [15, 47]: 70.1%; residual activity [16, 47]: 95.2%; residual activity [17, 47]: 85.5%; residual activity [18, 47]: 100%; residual activity [19, 47]: 79.6%; residual activity [20, 47]: 99.4%; residual activity [21, 47]: 88.8%; inhibition [22]: -3.4%; residual activity [23, 47]: 79.9%; residual activity [24, 47]: 74.9%; residual activity [25, 47]: 75.3%; residual activity [26, 47]: 82.4%; residual activity [27, 47]: 100%; residual activity [28, 47]: 88.1%; residual activity [29, 47]: 100%; residual activity [30, 47]: 88.7%; residual activity [31, 47]: 100%; residual activity [32, 47]: 97.5%; residual activity [33, 47]: 100%; residual activity [34, 47]: 78.7%; residual activity [35, 47]: 94.4%; residual activity [36, 47]: 100%; residual activity [37, 47]: 57.7%; residual activity [38, 47]: 84.6%; residual activity [39, 47]: 100%; residual activity [40, 47]: 92.9%; residual activity [41, 47]: 77.1%; residual activity [42, 47]: 91.1%; residual activity [43, 47]: 83.4%; residual activity [44, 47]: 87.9%; residual activity [45, 47]: 61.6%
